Three molecules from US12479847B2 (DANA-FARBER CANCER INSTITUTE, INC., priority 2019, dated 2025) can be followed below.

Holding throughout (experiment): KINOMEscan (ScanMAX) kinase profiling
Format in all cases: binding

The target in assay [1] is T1, panel of 468 kinases (Homo sapiens, UniProt O14757).
T1 construct: purchased KINOMEscan (ScanMAX) service
T1 sequence (O14757 1-476): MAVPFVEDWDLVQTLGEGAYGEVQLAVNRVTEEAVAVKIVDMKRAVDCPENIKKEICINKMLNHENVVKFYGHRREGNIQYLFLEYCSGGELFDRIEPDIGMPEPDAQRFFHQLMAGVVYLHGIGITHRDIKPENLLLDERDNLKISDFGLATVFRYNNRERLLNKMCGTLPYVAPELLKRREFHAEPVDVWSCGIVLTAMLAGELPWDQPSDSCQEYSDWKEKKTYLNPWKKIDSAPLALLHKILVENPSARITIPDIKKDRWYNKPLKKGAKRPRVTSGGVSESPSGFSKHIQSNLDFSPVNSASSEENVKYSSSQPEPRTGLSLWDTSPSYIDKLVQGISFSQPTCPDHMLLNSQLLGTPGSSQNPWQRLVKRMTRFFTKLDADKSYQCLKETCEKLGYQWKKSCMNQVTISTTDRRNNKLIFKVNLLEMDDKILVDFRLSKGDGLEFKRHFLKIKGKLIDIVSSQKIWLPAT
To be noted: CHEK1; 1 μM; read-out: % control.

Assay [2] has as its target T2, panel of 468 kinases (Homo sapiens, UniProt O75385).
T2 construct: purchased KINOMEscan (ScanMAX) service
T2 sequence (O75385 1-1050): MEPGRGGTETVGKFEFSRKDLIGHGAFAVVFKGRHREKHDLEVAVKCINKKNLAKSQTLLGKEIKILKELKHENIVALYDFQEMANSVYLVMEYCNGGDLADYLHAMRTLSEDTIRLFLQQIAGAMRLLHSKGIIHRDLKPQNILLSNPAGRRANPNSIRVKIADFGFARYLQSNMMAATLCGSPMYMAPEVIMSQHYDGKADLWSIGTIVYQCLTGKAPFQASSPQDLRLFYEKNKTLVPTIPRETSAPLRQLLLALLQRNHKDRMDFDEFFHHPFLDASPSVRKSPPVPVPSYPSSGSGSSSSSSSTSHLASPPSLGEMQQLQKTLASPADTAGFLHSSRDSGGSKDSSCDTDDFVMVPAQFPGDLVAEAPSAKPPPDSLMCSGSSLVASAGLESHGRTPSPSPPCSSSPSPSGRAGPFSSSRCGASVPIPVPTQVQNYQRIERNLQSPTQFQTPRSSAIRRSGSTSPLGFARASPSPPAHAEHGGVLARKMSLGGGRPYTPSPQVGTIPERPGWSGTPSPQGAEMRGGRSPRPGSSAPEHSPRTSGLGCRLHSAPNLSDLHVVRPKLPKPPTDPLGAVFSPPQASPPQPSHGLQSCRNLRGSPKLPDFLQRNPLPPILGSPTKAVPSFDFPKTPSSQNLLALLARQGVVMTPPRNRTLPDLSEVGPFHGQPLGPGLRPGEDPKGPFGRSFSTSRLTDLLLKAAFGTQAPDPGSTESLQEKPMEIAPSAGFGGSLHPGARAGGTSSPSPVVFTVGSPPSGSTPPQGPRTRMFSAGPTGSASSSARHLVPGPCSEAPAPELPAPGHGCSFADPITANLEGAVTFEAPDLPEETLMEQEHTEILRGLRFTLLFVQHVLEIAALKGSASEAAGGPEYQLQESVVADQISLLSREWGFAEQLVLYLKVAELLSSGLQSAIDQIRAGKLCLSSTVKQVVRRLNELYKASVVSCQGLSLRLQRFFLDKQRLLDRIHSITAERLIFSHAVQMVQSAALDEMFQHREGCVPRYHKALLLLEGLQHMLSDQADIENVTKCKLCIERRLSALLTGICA
To be noted: ULK1; 1 μM; read-out: % control.

Assay [3] deals with T3, panel of 468 kinases (Homo sapiens, UniProt P00519, H396P).
T3 construct: purchased KINOMEscan (ScanMAX) service
To be noted: 1 μM, read-out: % control.

For assay [4], the target named is T4, panel of 468 kinases (Homo sapiens, UniProt P49840).
T4 construct: purchased KINOMEscan (ScanMAX) service
To be noted: GSK3A; 1 μM; read-out: % control.

The target of assay [5] is T5, panel of 468 kinases (Homo sapiens, UniProt Q16288).
T5 construct: purchased KINOMEscan (ScanMAX) service
To be noted: TRKC; 1 μM; read-out: % control.

The target of assay [6] is T6, panel of 468 kinases (Homo sapiens, UniProt Q96GD4).
T6 construct: purchased KINOMEscan (ScanMAX) service
To be noted: AURKB; 1 μM; read-out: % control.

Assay [7] addresses T7, panel of 468 kinases (Homo sapiens, UniProt Q9NWZ3).
T7 construct: purchased KINOMEscan (ScanMAX) service
T7 sequence (Q9NWZ3 1-460): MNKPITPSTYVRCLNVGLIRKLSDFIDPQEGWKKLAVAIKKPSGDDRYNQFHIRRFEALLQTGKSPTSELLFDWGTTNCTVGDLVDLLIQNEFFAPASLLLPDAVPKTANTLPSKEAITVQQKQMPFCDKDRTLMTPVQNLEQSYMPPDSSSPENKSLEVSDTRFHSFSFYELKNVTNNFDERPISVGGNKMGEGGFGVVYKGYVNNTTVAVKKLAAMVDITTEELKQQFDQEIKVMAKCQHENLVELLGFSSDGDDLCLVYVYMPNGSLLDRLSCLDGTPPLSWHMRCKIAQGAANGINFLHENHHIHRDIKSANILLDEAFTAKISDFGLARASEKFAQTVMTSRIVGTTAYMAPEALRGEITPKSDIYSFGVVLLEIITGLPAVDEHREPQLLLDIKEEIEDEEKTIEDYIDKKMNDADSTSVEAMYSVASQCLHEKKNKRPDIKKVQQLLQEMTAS
To be noted: IRAK4; 1 μM; read-out: % control.

The target in assay [8] is T8, panel of 468 kinases (Homo sapiens, UniProt Q9Y2K2).
T8 construct: purchased KINOMEscan (ScanMAX) service
To be noted: QSK; 1 μM; read-out: % control.

Like-named read-outs stand apart in the source and are kept apart here.

T8 sequence (Q9Y2K2 whole entry): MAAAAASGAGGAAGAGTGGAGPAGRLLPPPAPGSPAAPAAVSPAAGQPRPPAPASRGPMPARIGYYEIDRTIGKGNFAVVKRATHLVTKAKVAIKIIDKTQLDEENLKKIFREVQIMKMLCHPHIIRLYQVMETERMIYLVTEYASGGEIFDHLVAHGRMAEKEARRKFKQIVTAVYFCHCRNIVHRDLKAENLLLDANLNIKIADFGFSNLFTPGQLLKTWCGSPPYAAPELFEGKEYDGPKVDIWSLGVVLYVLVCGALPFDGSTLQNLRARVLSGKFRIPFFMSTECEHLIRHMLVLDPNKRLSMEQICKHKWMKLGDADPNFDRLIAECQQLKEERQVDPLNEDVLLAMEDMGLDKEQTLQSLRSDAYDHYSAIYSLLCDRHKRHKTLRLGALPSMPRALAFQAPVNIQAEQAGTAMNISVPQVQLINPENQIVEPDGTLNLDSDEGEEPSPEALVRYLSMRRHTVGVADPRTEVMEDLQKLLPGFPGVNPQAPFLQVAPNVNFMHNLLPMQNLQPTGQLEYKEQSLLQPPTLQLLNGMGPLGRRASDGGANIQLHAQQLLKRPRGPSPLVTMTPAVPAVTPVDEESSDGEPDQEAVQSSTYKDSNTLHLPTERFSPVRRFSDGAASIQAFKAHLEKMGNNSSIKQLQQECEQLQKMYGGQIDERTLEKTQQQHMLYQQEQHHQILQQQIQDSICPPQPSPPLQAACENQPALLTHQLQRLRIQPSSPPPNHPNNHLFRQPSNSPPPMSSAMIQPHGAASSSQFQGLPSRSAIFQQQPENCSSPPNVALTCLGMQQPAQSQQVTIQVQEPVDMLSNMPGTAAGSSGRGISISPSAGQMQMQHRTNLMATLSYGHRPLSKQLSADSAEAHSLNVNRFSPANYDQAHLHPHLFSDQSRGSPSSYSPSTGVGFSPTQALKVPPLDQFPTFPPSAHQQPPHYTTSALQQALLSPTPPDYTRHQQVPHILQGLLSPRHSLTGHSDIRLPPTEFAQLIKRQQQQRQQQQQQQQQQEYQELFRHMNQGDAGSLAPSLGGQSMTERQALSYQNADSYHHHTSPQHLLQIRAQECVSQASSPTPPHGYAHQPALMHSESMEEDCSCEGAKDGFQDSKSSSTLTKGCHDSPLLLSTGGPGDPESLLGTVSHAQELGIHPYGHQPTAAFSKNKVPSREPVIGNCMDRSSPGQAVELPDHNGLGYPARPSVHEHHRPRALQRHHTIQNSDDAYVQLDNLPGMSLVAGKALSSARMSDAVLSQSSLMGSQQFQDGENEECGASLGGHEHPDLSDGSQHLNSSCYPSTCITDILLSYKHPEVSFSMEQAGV
T4 sequence (P49840 whole entry): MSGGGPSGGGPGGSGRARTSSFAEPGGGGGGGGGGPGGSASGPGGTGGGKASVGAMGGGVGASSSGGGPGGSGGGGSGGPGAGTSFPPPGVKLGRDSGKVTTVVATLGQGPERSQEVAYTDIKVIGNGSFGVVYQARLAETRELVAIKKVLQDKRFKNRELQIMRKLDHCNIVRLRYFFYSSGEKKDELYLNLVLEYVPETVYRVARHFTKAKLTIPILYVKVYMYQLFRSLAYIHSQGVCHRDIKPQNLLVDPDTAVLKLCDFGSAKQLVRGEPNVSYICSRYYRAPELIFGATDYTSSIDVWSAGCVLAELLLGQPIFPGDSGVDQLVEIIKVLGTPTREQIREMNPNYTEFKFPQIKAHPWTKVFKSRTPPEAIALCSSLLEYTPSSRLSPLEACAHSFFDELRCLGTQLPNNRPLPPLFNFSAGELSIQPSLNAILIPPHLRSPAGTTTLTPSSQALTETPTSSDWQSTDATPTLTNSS
T6 sequence (Q96GD4 whole entry): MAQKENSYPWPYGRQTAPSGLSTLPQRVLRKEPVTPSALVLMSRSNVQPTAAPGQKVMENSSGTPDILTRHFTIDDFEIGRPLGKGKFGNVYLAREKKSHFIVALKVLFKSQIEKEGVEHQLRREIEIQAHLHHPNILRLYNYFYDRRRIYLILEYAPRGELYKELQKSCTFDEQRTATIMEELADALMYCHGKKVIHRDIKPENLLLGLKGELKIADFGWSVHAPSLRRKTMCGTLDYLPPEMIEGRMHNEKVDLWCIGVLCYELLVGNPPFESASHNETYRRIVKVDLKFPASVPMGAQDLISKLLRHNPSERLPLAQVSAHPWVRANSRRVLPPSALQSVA
T5 sequence (Q16288 32-839): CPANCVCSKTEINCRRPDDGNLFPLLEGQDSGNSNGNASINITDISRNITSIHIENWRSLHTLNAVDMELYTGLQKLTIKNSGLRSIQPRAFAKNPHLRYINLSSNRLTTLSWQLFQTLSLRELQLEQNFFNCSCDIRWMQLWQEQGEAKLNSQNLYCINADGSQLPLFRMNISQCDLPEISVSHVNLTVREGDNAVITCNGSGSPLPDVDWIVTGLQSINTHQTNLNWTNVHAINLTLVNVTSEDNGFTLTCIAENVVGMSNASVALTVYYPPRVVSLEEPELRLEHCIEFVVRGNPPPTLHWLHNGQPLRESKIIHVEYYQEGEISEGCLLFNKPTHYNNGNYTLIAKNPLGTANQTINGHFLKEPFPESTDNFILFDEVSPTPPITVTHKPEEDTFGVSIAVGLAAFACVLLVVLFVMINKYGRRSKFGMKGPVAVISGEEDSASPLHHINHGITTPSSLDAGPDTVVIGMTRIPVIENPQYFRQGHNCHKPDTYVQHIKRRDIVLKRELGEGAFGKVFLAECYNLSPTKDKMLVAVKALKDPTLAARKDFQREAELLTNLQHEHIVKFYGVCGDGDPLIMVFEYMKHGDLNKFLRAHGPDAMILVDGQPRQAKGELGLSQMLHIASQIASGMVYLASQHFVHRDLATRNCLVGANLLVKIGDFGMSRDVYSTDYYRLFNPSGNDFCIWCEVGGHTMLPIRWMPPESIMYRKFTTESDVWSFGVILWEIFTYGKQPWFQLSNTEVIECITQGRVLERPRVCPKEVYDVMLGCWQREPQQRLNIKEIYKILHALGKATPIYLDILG

In the case of `CNc1nc(Nc2ccc(S(=O)(=O)N3CCC(N4CCOCC4)CC3)cc2OC)nc2[nH]cc(Cl)c12` [Compound 12, 5-chloro-N2-(2-methoxy-4-((4-morpholinopiperidin-1-yl)sulfonyl)phenyl)-N4-methyl-7H-pyrrolo[2,3-d]pyrimidine-2,4-diamine], the remaining binding at 1 µM was determined as 100% at panel of 468 kinases [1]; 97% on panel of 468 kinases [2]; 100% on panel of 468 kinases [3] (ABL1(H396P)-nonphosphorylated); 73% on panel of 468 kinases [3] (ABL1(H396P)-phosphorylated); 91% on panel of 468 kinases [4]; 100% on panel of 468 kinases [5]. In addition, the remaining binding at 1 µM turned out to be 73% at panel of 468 kinases [6], 95% at panel of 468 kinases [7] and 100% on panel of 468 kinases [8].

Consider `CNc1nc(Nc2ccc(C(=O)N3CCC(N4CCOCC4)CC3)c3c2OCO3)nc2[nH]cc(Cl)c12` [Compound 75, (7-((5-chloro-4-(methylamino)-7H-pyrrolo[2,3-d]pyrimidin-2-yl)amino)benzo[d][1,3]dioxol-4-yl)(4-morpholinopiperidin-1-yl)methanone], for which the remaining binding at 1 µM at panel of 468 kinases [1] amounted to 67%; on panel of 468 kinases [2], 50%; on panel of 468 kinases [3] (ABL1(H396P)-nonphosphorylated), 99%; at panel of 468 kinases [3] (ABL1(H396P)-phosphorylated), 82%; on panel of 468 kinases [4], 87%; on panel of 468 kinases [5], 100%. For the same molecule, the remaining binding at 1 µM on panel of 468 kinases [6] came to 57%; on panel of 468 kinases [7], 82%; on panel of 468 kinases [8] it was 100%.

With `CNc1nc(Nc2ccc(P3(=O)CCN(C4CCOCC4)CC3)cc2OC)nc2[nH]cc(Cl)c12` [Compound 77, 4-(4-((5-chloro-4-(methylamino)-7H-pyrrolo[2,3-d]pyrimidin-2-yl)amino)-3-methoxyphenyl)-1-(tetrahydro-2H-pyran-4-yl)-1,4-azaphosphinane 4-oxide], the remaining binding at 1 µM at panel of 468 kinases [1] worked out at 100%; on panel of 468 kinases [2] it was 95%; at panel of 468 kinases [3] (ABL1(H396P)-nonphosphorylated), 100%; at panel of 468 kinases [3] (ABL1(H396P)-phosphorylated), 75%; at panel of 468 kinases [4], 90%; at panel of 468 kinases [5], 100%. The remaining binding at 1 µM on panel of 468 kinases [6] stood at 74%; on panel of 468 kinases [7], 98%; on panel of 468 kinases [8], 100%.
